The structures appear in SMILES notation. Where two headings read alike, the source gives them in different places.

For one assay, the target named is T1, Menin-MLL (Homo sapiens, UniProt O00255).
T1 construct: His-Menin (M1-L615 end); purchased BIORTUS BP9210
T1 sequence (O00255 1-615 isoform O00255-1): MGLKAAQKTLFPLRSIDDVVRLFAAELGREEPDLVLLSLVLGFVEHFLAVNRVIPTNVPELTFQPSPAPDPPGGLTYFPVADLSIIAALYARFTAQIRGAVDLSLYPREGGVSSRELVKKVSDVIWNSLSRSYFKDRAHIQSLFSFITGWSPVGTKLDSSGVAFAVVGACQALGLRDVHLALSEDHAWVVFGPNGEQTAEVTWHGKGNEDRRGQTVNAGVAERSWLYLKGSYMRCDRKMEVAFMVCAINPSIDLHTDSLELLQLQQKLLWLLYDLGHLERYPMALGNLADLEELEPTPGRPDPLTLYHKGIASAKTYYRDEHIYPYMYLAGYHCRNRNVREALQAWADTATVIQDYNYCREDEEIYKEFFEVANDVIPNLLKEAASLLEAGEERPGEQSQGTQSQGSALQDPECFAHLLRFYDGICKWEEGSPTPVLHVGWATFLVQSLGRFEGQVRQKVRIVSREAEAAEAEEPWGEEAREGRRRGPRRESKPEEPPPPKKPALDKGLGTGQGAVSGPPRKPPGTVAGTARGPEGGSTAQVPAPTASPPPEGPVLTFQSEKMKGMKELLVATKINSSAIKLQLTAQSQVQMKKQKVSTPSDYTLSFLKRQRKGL
Kind of assay: Inhibitory activity against Menin-MLL binding (fluorescence polarization). The following applies: 150 nM His-Menin, 15 nM FITC-MLL, 25°C for 60 min. A digest of the protocol: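 His-Menin (M1-L615, 150 nM) preincubated with compound 15 min at 25 °C in HEPES pH 7.5, 50 mM NaCl, 1 mM DTT, 0.01% BSA, then 15 nM FITC-MLL4-43 peptide added for 60 min at 25 °C. Fluorescence polarization read; IC50 from 4-parameter logistic fit, duplicates.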

Assay [1] relates to MV-4-11 (carrying MLL-AF4). Kind of assay: Inhibition of proliferation of human tumor cells (Alamar Blue, 7 days), MV-4-11. Format: cell-based. The note with it: Homo sapiens, MV4-11, 168 h, MV-4-11 cells (carrying MLL-AF4), method calls the value GI50. The source says:
Experimental Example 2: Evaluation of Inhibitory Activity of Compounds Against Proliferation of Human Tumor Cells
• Human acute lymphoblastic leukemia cells MV-4-11, purchased from American Type Culture Collection, Catalog Number: CRL-9591; • Human acute myeloid leukemia cells MOLM-13, purchased from COBIOER BIOSCIENCES CO., LTD, Catalog Number: CBP60678; • Human acute myeloid leukemia cells KG-1a, purchased from American Type Culture Collection, Catalog Number: CCL-246.1; • Inverted Microscope, purchased from Olympus Tokyo; • Countess™ Automated Cell Counter, purchased from Invitrogen, Model: C10281; and • Multilabel Reader, purchased from Bio-Tek, Model: Synergy HT.
MV-4-11 cells were cultured in an IMDM medium containing 10% fetal bovine serum, KG-a cells were cultured in an IMDM medium containing 20% fetal bovine serum, or MOLM-13 cells were cultured in an RPMI-1640 medium containing 20% fetal bovine serum, each supplemented with 100 U·mL^-1 penicillin and 100 µg·mL^-1 streptomycin. These cells were cultured at 37°C with 5% CO2. The suspensions of individual cell lines were prepared in their respective media and seeded into 96-well plates at a density of 4,000 cells/well for MV-4-11 and MOLM-13 cells, or 3,000 cells/well for KG-1a cells. On the day of the experiment, a compound stock solution was diluted in a 3-fold or 4-fold gradient using DMSO. Each gradient-diluted stock solution was then further diluted 250-fold with a complete medium to prepare a series of working solutions at different concentrations. Subsequently, 100 µL of working solution (containing a 2-fold concentration series of the test compound) was added to each well, with duplicate wells set up for each concentration.
Seven days after compound addition (on Day 7), an Alamar Blue assay reagent (MCE, HY-111391 / CS-0040317) was added to measure the fluorescence intensity in each well. Wells containing the cells in the growth medium supplemented with 0.1% DMSO (Day 7) served as high-read control wells. The readouts from the wells containing the cells in the growth medium supplemented with 0.1% DMSO on the day of compound addition (Day 0) served as low-reading control well. GraphPad Prism software was used to calculate the concentration required to inhibit 50% of cell proliferation (GI50), which serves as a cell proliferation inhibition activity index.

Assay [2] relates to MOLM-13 (carrying MLL-AF9). Nature of the assay: Inhibition of proliferation of human tumor cells (Alamar Blue, 7 days), MOLM-13. It counts as cell-based. The note with it: Homo sapiens, MOLM-13 cells (carrying MLL-AF9), method calls the value GI50. A digest of the protocol: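 MV-4-11: IMDM + 10% FBS; KG-1a: IMDM + 20% FBS; MOLM-13: RPMI-1640 + 20% FBS. 3- or 4-fold serial dilutions, duplicates, 7 d at 37°C. Readout Alamar Blue; GI50 vs Day 0 and Day 7 DMSO controls.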

[3] abbreviates: Menin-MLL IC50, fluorescence polarization.
Where [4] appears, read: fluorescence polarization, read-out: Menin-MLL IC50.

Take `CO[C@H]1CCN([C@H]2C[C@H](C(C(C)C)N3CC(c4cc(-c5ccc(F)cc5C(=O)N5CCOC[C@H]5C)c5cnn(C)c5c4)C3)C2)C1` (stereo partly drawn) [Example 196-1, 4-{4-fluoro-2-[(3R)-3-methylmorpholin-4-carbonyl]phenyl}-1-methyl-6-(1-{2-methyl-1-[(1r,3r)-3-[(3S)-3-methoxypyrrolidin-1-yl]cyclobutyl]propyl}azacyclobutan-3-yl)-1H-indazole]: the half-maximal inhibitory concentration (IC50) turned out to be 50 nM on Menin-MLL (setting [3]); 36 nM in assay [1]; 120 nM in assay [2] (MOLM-13, 168 h).

As for `CCNC(=O)N1CCC([C@H](C)N2CC(c3cc(-c4ccc(F)cc4C(=O)N4CCOC[C@H]4C)c4c(F)nc(C)n4c3)C2)CC1` [Example 279], the IC50 on Menin-MLL (setting [4]) was 6 nM; in assay [1], 3.3 nM; in assay [2] (168 h), 7.4 nM.

With `CCS(=O)(=O)N[C@H]1CC[C@H](CN2CC(c3cc(-c4ccc(F)cc4C(=O)N4CCC[C@H]4C)c4c(F)nc(C)n4c3)C2)CC1` [Example 187, N-[(1r,4r)-4-{[3-(1-fluoro-8-{4-fluoro-2-[(2R)-2-methylpyrrolidin-1-carbonyl]phenyl}-3-methylimidazo[1,5-a]pyridin-6-yl)azacyclobutan-1-yl]methyl}cyclohexyl]ethan-1-sulfonamide], the IC50 at Menin-MLL (setting [3]) was determined as 16.5 nM; in assay [1], 15 nM; in assay [2] (MOLM-13, 168 h), 36 nM.

For `CNC(=O)N1CCC(CN2CC(c3cc(-c4ccc(F)cc4C(=O)N4CCOC[C@H]4C)c4c(F)nc(C)n4c3)C2)CC1` [Example 250], the IC50 at Menin-MLL (setting [4]) amounted to 17 nM; in assay [1], 26 nM; in assay [2] (168 h), 45 nM.

On to `CO[C@H]1CCN([C@H]2C[C@@H](C(C(C)C)N3CC(c4cc(-c5ccc(F)cc5C(=O)N5CCOC[C@H]5C)c5cnn(C)c5c4)C3)C2)C1` (stereo partly drawn) [Example 196-2, 4-{4-fluoro-2-[(3R)-3-methylmorpholin-4-carbonyl]phenyl}-1-methyl-6-(1-{2-methyl-1-[(1s,3s)-3-[(3S)-3-methoxypyrrolidin-1-yl]cyclobutyl]propyl}azacyclobutan-3-yl)-1H-indazole], for which the IC50 was 17 nM at Menin-MLL (setting [3]); 9.6 nM in assay [1]; 28 nM in assay [2] (MOLM-13, 168 h).

Turning to `Cc1nc(F)c2c(-c3ccc(F)cc3C(=O)N3[C@H](C)COC[C@H]3C)cc(C3CN(CC4CCN(C(=O)c5cncnc5)CC4)C3)cn12` [Example 234], the values for the half-inhibitory concentration (IC50) (on Menin-MLL (setting [4]); in assay [1]; in assay [2] (168 h)) were 11 nM, 5.8 nM and 14 nM, respectively.

In the case of `Cc1nc(F)c2c(-c3ccc(F)cc3C(=O)N3[C@H](C)COC[C@H]3C)cc(C3CN(CC4CCN(CC5(O)CCOCC5)CC4)C3)cn12` [Example 211, 4-[(4-{[3-(8-{2-[(3R,5R)-3,5-dimethylmorpholin-4-carbonyl]-4-fluorophenyl}-1-fluoro-3-methylimidazo[1,5-a]pyridin-6-yl)azacyclobutan-1-yl]methyl}piperidin-1-yl)methyl]oxacyclohexan-4-ol], the IC50 on Menin-MLL (setting [4]) is 3 nM; in assay [1], 2.2 nM; in assay [2] (168 h) it was 5.7 nM.

On to `CCS(=O)(=O)N[C@H]1CC[C@H](CN2CC[C@@H](c3cc(-c4ccc(F)cc4C(=O)N(CC(F)F)C(C)C)c4cnc(C)n4c3)C2)CC1` [Example 164, N-(2,2-difluoroethyl)-5-fluoro-2-{3-methyl-6-[(3S)-1-{[(1r,4r)-4-ethanesulfonamidocyclohexyl]methyl}pyrrolidin-3-yl]imidazo[1,5-a]pyridin-8-yl]-N-(isopropyl)benzamide], for which the 50% inhibitory concentration (IC50) at Menin-MLL (setting [3]) is 6 nM; in assay [1], 2.2 nM; in assay [2] (MOLM-13, 168 h) it was 6.1 nM.

In the case of `COC(=O)N1CCC(CN2CC(c3cc(-c4ccc(F)cc4C(=O)N4CCOC[C@H]4C)c4c(F)nc(C)n4c3)C2)CC1` [Example 259], the values for the IC50 (on Menin-MLL (setting [4]); in assay [1]; in assay [2] (168 h)) were 59 nM, 55 nM and 110 nM, respectively.

For the compound `CCN(C(=O)c1cc(F)ccc1-c1cc(C2CN(C[C@H]3CC[C@H](NS(=O)(=O)CC)CC3)C2)cn2c(C)ncc12)C(C)C` [Example 120, N-ethyl-5-fluoro-2-[3-methyl-6-(1-{[(1r,4r)-4-ethanesulfonamidocyclohexyl]methyl}-azacyclobutan-3-yl)imidazo[1,5-a]pyridin-8-yl]-N-(isopropyl)benzamide], the IC50 was found to be 8.5 nM at Menin-MLL (setting [3]); 8.5 nM in assay [1]; 29.5 nM in assay [2] (MOLM-13, 168 h).

Consider `Cc1nc(F)c2c(-c3ccc(F)cc3C(=O)N3[C@H](C)COC[C@H]3C)cc(C3CN(CC4CCN(C(=O)c5cn[nH]c5)CC4)C3)cn12` [Example 247], for which the figures for the IC50 (at Menin-MLL (setting [4]); in assay [1]; in assay [2] (168 h)) were 9.5 nM, 9.2 nM and 22 nM, respectively.

Consider `Cc1ncc2c(-c3ccc(F)cc3C(=O)N3CCOC[C@H]3C)cc(C3CN(CC4CCOCC4)C3)cn12` [Example 243, (3R)-4-[5-fluoro-2-(3-methyl-6-{1-[(oxacyclohexan-4-yl)methyl]azacyclobutan-3-yl}imidazo[1,5-a]pyridin-8-yl)benzoyl]-3-methylmorpholine], for which the IC50 on Menin-MLL (setting [4]) was found to be 31.5 nM; in assay [1], 42 nM; in assay [2] (168 h), 200 nM.

`Cc1nc(F)c2c(-c3ccc(F)cc3C(=O)N3CCOC[C@H]3C)cc(C3CN(CC4CCN(c5cncnc5)CC4)C3)cn12` [Example 266, (3R)-4-{5-fluoro-2-[1-fluoro-3-methyl-6-(1-{[1-(pyrimidin-5-yl)piperidin-4-yl]methyl}azacyclobutan-3-yl)imidazo[1,5-a]pyridin-8yl]benzoyl}-3-methylmorpholine]: the half-maximal inhibitory concentration (IC50) turned out to be 13 nM at Menin-MLL (setting [4]), 13 nM in assay [1] and 33 nM in assay [2] (168 h).

As for `C=C1C[C@@H]2CC[C@H]1[C@@H](C(=O)N1CC(c3cc(-c4ccc(F)cc4C(=O)N(CC(F)F)C(C)C)c4cnc(C)n4c3)C1)N2` [Example 121, N-(2,2-difluoroethyl)-5-fluoro-2-(3-methyl-6-{1-[(1S,3S,4R)-5-methylene-2-azabicyclo[2.2.2]octan-3-carbonyl]azacyclobutan-3-yl}imidazo[1,5-a]pyridin-8-yl)-N-(isopropyl)benzamide], the IC50 was 23.5 nM on Menin-MLL (setting [4]), 42 nM in assay [1] and 128 nM in assay [2] (168 h).

As for `Cc1ncc2c(-c3ccc(F)cc3C(=O)N3[C@H](C)COC[C@H]3C)cc(C3CN(CC4CCOCC4)C3)cn12` [Example 212, (3R,5R)-4-[5-fluoro-2-(3-methyl-6-{1-[(oxacyclohexan-4-yl)methyl]azacyclobutan-3-yl}imidazo[1,5-a]pyridin-8-yl)benzoyl]-3,5-dimethylmorpholine], the IC50 on Menin-MLL (setting [4]) came to 12.5 nM; in assay [1], 16 nM; in assay [2] (168 h), 31 nM.

For `CC(=O)N1CCC(CN2CC(Cc3cc(-c4ccc(F)cc4C(=O)N(CC(F)F)C(C)C)c4cncc(C)n34)C2)CC1` [Example 210], the half-inhibitory concentration (IC50) on Menin-MLL (setting [4]) was found to be 3 nM; in assay [1], 7.1 nM; in assay [2] (168 h), 41 nM.
